The results in this text go back to patent US10143746B2, “Immunomodulators” (BRISTOL-MYERS SQUIBB COMPANY, priority 2016, dated 2018).

Where a SMILES comes first, the peptide text is derived from it. Bridges are numbered along the chain shown (N, C = ends). [ ]: non-standard residue; d: D form. Bta = N[C@@H](Cc1csc2ccccc12)C(=O)O; Hyp = O=C(O)[C@@H]1C[C@@H](O)CN1; NMeNle = CCCC[C@H](NC)C(=O)O; NMeA = CN[C@@H](C)C(=O)O

Chain of PD-1-Ig binding to PD-L1-TVMV-His (PD-L1-His) (Q9NZQ7 other isoform, or with tags, fused parts or gaps): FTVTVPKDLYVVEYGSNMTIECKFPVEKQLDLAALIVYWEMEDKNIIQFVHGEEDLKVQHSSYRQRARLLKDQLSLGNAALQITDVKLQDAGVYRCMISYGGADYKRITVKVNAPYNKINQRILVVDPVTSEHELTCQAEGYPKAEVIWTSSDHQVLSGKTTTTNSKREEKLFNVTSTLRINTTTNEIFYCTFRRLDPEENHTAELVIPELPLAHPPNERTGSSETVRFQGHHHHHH

In one test the target is PD-1-Ig binding to PD-L1-TVMV-His (PD-L1-His) (Homo sapiens (Human), UniProt Q9NZQ7). Description: PD-1/PD-L1 Homogenous Time-Resolved Fluorescence (HTRF) binding assay (PD-1-Ig/PD-L1-His). To be noted: PD-1-Ig (20 nM)/PD-L1-His (10 nM); numeric values. From the text:
Methods for Testing the Ability of Macrocyclic Compounds to Compete for the Binding of PD-1 to PD-L1 Using Homogenous Time-Resolved Fluorescence (HTRF) Binding Assays
The ability of the macrocyclic compounds of the present disclosure to bind to PD-L1 was investigated using a PD-1/PD-L1 Homogenous Time-Resolved Fluorescence (HTRF) binding assay.
Homogenous Time-Resolved Fluorescence (HTRF) Assays of Binding of Soluble PD-1 to Soluble PD-L1. Soluble PD-1 and soluble PD-L1 refers to proteins with carboxyl-end truncations that remove the transmembrane-spanning regions and are fused to heterologous sequences, specifically the Fc portion of the human immunoglobulin G sequence (Ig) or the hexahistidine epitope tag (His). All binding studies were performed in an HTRF assay buffer consisting of dPBS supplemented with 0.1% (w/v) bovine serum albumin and 0.05% (v/v) Tween-20. For the PD-1-Ig/PD-L1-His binding assay, inhibitors were pre-incubated with PD-L1-His (10 nM final) for 15 m in 4 μl of assay buffer, followed by addition of PD-1-Ig (20 nM final) in 1 μl of assay buffer and further incubation for 15 m. PD-L1 fusion proteins from either human, cynomologous macaques, mouse, or other species were used. HTRF detection was achieved using europium crypate-labeled anti-Ig monoclonal antibody (1 nM final) and allophycocyanin (APC) labeled anti-His monoclonal antibody (20 nM final). Antibodies were diluted in HTRF detection buffer and 5 μl was dispensed on top of binding reaction. […] Additional binding assays were established between PD-1-Ig/PD-L2-His (20 and 5 nM, respectively), CD80-His/PD-L1-Ig (100 and 10 nM, respectively) and CD80-His/CTLA4-Ig (10 and 5 nM, respectively).
Recombinant Proteins. […] Human PD-L2-His (Sino Biologicals), CD80-His (Sino Biologicals), CTLA4-Ig (RnD Systems) were all obtained through commercial sources.
(In general: TR-FRET usually uses a lanthanide donor and a delayed reading to cut background.)
The IC50 is the concentration at which inhibition is half-maximal. In turn, `CCCC[C@H]1C(=O)N(C)[C@@H](CCCC)C(=O)N[C@H]2CCC(=O)NCCCC[C@H](NC(=O)[C@H](Cc3c[nH]c4ccccc34)NC(=O)[C@@H]3C[C@@H](O)CN3C(=O)[C@H](CCC(N)=O)NC(=O)[C@H](Cc3c[nH]cn3)NC(=O)[C@@H]3CCCN3C(=O)[C@H](CC(N)=O)NC(=O)[C@@H](C)NC(=O)[C@H](Cc3ccc(O)cc3)NC(=O)CSC[C@@H](C(=O)NCC(N)=O)NC2=O)C(=O)N[C@@H](Cc2c[nH]c3ccccc23)C(=O)N1C` [Example 5007] ({CH2CO}-Y[dA]NPHQ[Hyp]WKW[NMeNle][NMeNle]ECG-NH2; lactam 9-13; thioether N-14) displayed a half-maximal inhibitory concentration (IC50) of 0.014 µM.

Still in this test, the particulars now being: PD-1-Ig (20 nM)/PD-L1-His (10 nM); range classes.
As to `CCCC[C@H]1C(=O)N(C)[C@@H](CCCC)C(=O)N[C@H]2CCC(=O)NCCCC[C@H](NC(=O)[C@H](Cc3c[nH]c4ccccc34)NC(=O)[C@@H]3CCCN3C(=O)[C@H](CC(C)C)NC(=O)[C@H](Cc3c[nH]cn3)NC(=O)[C@@H]3CCCN3C(=O)[C@H](CC(N)=O)NC(=O)[C@H](C)N(C)C(=O)[C@H](Cc3ccc(O)cc3)NC(=O)CSC[C@@H](C(=O)NCC(N)=O)NC2=O)C(=O)N[C@@H](Cc2csc3ccccc23)C(=O)N1C` [Example 5004] ({CH2CO}-Y[NMeA]NPHLPWK[Bta][NMeNle][NMeNle]ECG-NH2; lactam 9-13; thioether N-14), the IC50 lay within 0.003 to 0.0099 µM. In the case of `CCCC[C@H]1C(=O)N(C)[C@@H](CCCC)C(=O)N[C@H]2CCC(=O)NCCCC[C@H](NC(=O)[C@H](Cc3c[nH]c4ccccc34)NC(=O)[C@@H]3C[C@@H](O)CN3C(=O)[C@@H]3CCCCNC(=O)C[C@H](NC(=O)[C@H](C)N(C)C(=O)[C@H](Cc4ccc(O)cc4)NC(=O)CSC[C@@H](C(=O)NCC(N)=O)NC2=O)C(=O)N2CCC[C@H]2C(=O)N[C@@H](Cc2c[nH]cn2)C(=O)N3)C(=O)N[C@@H](Cc2c[nH]c3ccccc23)C(=O)N1C` [Example 5005] ({CH2CO}-Y[NMeA]DPHK[Hyp]WKW[NMeNle][NMeNle]ECG-NH2; lactam 3-6, 9-13; thioether N-14), the half-maximal inhibitory concentration (IC50) lay in the range of 0.01 to 0.099 µM.

For the molecule `CCCC[C@H]1C(=O)N(C)[C@@H](CCCC)C(=O)N[C@@H](CCC(N)=O)C(=O)N[C@H](C(=O)NCC(N)=O)CSCC(=O)N[C@@H](Cc2ccc(O)cc2)C(=O)N[C@H](C)C(=O)N[C@H]2CC(=O)NCCCC[C@H](NC(=O)[C@H](Cc3c[nH]cn3)NC(=O)[C@@H]3CCCN3C2=O)C(=O)N2C[C@H](O)C[C@H]2C(=O)N[C@@H](Cc2c[nH]c3ccccc23)C(=O)N[C@@H](CO)C(=O)N[C@@H](Cc2c[nH]c3ccccc23)C(=O)N1C` [Example 5006] ({CH2CO}-Y[dA]DPHK[Hyp]WSW[NMeNle][NMeNle]QCG-NH2; lactam 3-6; thioether N-14), the IC50 lay in the range of 0.01 to 0.099 µM. `CCCC[C@H]1C(=O)N(C)[C@@H](CCCC)C(=O)N[C@H]2CCC(=O)NCCCC[C@H](NC(=O)[C@H](Cc3c[nH]c4ccccc34)NC(=O)[C@@H]3C[C@@H](O)CN3C(=O)[C@H](CC(C)C)NC(=O)[C@H](Cc3c[nH]cn3)NC(=O)[C@@H]3CCCN3C(=O)[C@H](CC(N)=O)NC(=O)[C@@H](C)NC(=O)[C@H](Cc3ccc(O)cc3)NC(=O)CSC[C@@H](C(=O)NCC(N)=O)NC2=O)C(=O)N[C@@H](Cc2c[nH]c3ccccc23)C(=O)N1C` [Example 5008] ({CH2CO}-Y[dA]NPHL[Hyp]WKW[NMeNle][NMeNle]ECG-NH2; lactam 9-13; thioether N-14) gave an IC50 of 0.003 to 0.0099 µM.

The molecule `CCCC[C@H]1C(=O)N(C)[C@@H](CCCC)C(=O)N[C@H]2CCCC[C@H](NC(=O)[C@H](Cc3c[nH]c4ccccc34)NC(=O)[C@@H]3CCCN3C(=O)[C@H](CC(C)C)NC(=O)[C@H](Cc3cnc[nH]3)NC(=O)[C@@H]3CCCN3C(=O)[C@H](CC(N)=O)NC(=O)[C@H](C)N(C)C(=O)[C@H](Cc3ccc(O)cc3)NC(=O)CSC[C@@H](C(=O)NCC(N)=O)NC2=O)C(=O)N[C@@H](Cc2c[nH]c3ccccc23)C(=O)N1C` [Example 7156] yielded a half-maximal inhibitory concentration (IC50) of 0.01 to 0.099 µM.

Turning to `CCCC[C@H]1C(=O)N(C)[C@@H](CCCC)C(=O)N[C@@H](CC(C)C)C(=O)N[C@H](C(=O)NCC(N)=O)CSCC(=O)N[C@@H](Cc2ccc(O)cc2)C(=O)N(C)[C@@H](C)C(=O)N[C@H]2CCC(=O)NC[C@H](NC(=O)[C@@H]3CCCN3C2=O)C(=O)N[C@@H](CC(C)C)C(=O)N2CCC[C@H]2C(=O)N[C@@H](Cc2c[nH]c3ccccc23)C(=O)N[C@@H](CO)C(=O)N[C@@H](Cc2c[nH]c3ccccc23)C(=O)N1C` [Example 10500], the 50% inhibitory concentration (IC50) was 0.1 to 1 µM. On to `CCCC[C@H]1C(=O)N(C)[C@@H](CCCC)C(=O)N[C@@H](CC(C)C)C(=O)N[C@H](C(=O)NCC(N)=O)CSCC(=O)N[C@@H](Cc2ccc(O)cc2)C(=O)N(C)[C@@H](C)C(=O)N[C@H]2CCC(=O)NCCCC[C@H](NC(=O)[C@@H]3CCCN3C2=O)C(=O)N[C@@H](CC(C)C)C(=O)N2CCC[C@H]2C(=O)N[C@@H](Cc2c[nH]c3ccccc23)C(=O)N[C@@H](CO)C(=O)N[C@@H](Cc2c[nH]c3ccccc23)C(=O)N1C` [Example 10501], for which the 50% inhibitory concentration (IC50) is 0.1 to 1 µM. Turning to `CCCC[C@H]1C(=O)N(C)[C@@H](CCCC)C(=O)N[C@@H](CC(C)C)C(=O)N[C@H](C(=O)NCC(N)=O)CSCC(=O)N[C@@H](Cc2ccc(O)cc2)C(=O)N(C)[C@@H](C)C(=O)N[C@H]2CCC(=O)NCC[C@H](NC(=O)[C@@H]3CCCN3C2=O)C(=O)N[C@@H](CC(C)C)C(=O)N2CCC[C@H]2C(=O)N[C@@H](Cc2c[nH]c3ccccc23)C(=O)N[C@@H](CO)C(=O)N[C@@H](Cc2c[nH]c3ccccc23)C(=O)N1C` [Example 10503], the IC50 was in the range of 0.1 to 1 µM.
